Biological target: menin protein (Homo sapiens (Human), UniProt O00255)
Assay: biochemical
Type: binding
Details: FP competitive binding; menin protein 4 nM, FAM-MM2 probe 2 nM; read-out: Menin Binding Affinity IC50
Method in brief: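 Test compounds displaced FAM-MM2 (2 nM) from 4 nM menin after 30 min equilibration at room temperature in PBS buffer containing bovine γ-globulin, 4% DMSO and Triton X-100. Binding was followed by fluorescence polarization. Competition curves were fitted by nonlinear regression to give IC50 and Ki.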

Sequence of menin protein (O00255 whole entry): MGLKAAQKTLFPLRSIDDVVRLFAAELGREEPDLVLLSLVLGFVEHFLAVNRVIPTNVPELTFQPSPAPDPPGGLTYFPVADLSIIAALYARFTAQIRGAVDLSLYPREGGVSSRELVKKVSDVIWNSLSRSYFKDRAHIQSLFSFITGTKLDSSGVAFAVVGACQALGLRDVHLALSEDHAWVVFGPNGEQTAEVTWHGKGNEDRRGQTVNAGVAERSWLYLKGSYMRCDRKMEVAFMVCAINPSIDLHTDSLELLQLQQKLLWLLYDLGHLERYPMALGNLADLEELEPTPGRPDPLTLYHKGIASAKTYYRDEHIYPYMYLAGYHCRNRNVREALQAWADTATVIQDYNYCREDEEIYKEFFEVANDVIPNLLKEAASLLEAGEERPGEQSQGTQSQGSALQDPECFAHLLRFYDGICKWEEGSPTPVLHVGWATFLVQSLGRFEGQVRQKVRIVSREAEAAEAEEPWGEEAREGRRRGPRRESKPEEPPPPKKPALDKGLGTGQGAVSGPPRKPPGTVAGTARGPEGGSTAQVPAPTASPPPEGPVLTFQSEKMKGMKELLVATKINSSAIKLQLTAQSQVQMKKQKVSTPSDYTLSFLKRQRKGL

Structure (SMILES)	IC50
CN1Cc2cccc(Cl)c2C(C2CCCC2)(C2CCN(CCCOc3ccc(C#N)cc3)CC2)C1 (stereo not shown) [compound 34, 4-(3-(4-(5-chloro-4-cyclopentyl-2-methyl-1,2,3,4-tetrahydroisoquinolin-4-yl)piperidin-1-yl)propoxy)benzonitrile]	1800 nM
N#Cc1ccc(OCCCN2CCC(C3(C4CCCC4)COCc4ccccc43)CC2)cc1 (stereo not shown) [compound 35, 4-(3-(4-(4-cyclopentylisochroman-4-yl)piperidin-1-yl)propoxy)benzonitrile]	3200 nM
N#Cc1ccc(OCCCN2CCC(C(CO)(c3ccccc3)C3CCCC3)CC2)cc1 (stereo not shown) [compound 37, 4-(3-(4-(1-cyclopentyl-2-hydroxy-1-phenylethyl)piperidin-1-yl)propoxy)benzonitrile]	449 nM
O=S(=O)(c1ccc(N2CC(CN3CCC(C4(C5CCCC5)COCc5ccccc54)CC3)C2)cc1)C1CC1 (stereo not shown) [compound 38, 4-(4-cyclopentylisochroman-4-yl)-1-((1-(4-(cyclopropylsulfonyl)phenyl)azetidin-3-yl)methyl)piperidine]	304 nM
N#Cc1ccc(OCCCN2CCC(C(CN)(c3ccccc3)C3CCCC3)CC2)cc1 (stereo not shown) [compound 39, 4-(3-(4-(2-amino-1-cyclopentyl-1-phenylethyl)piperidin-1-yl)propoxy)benzonitrile]	124 nM
CC(=O)NCC(c1ccccc1)(C1CCCC1)C1CCN(CCCOc2ccc(C#N)cc2)CC1 (stereo not shown) [compound 40, N-(2-(1-(3-(4-cyanophenoxy)propyl)piperidin-4-yl)-2-cyclopentyl-2-phenylethyl)acetamide]	817 nM
Cc1nccn1CC(c1ccccc1)(C1CCCC1)C1CCN(CCCOc2ccc(C#N)cc2)CC1 (stereo not shown) [compound 41, 4-(3-(4-(1-cyclopentyl-2-(2-methyl-1H-imidazol-1-yl)-1-phenylethyl)piperidin-1-yl)propoxy)benzonitrile]	166 nM
Cc1nccn1CC(c1ccccc1)(C1CCCC1)C1CCN(CC2CN(c3ccc(S(=O)(=O)C4CC4)cc3)C2)CC1 (stereo not shown) [compound 42, 4-(1-cyclopentyl-2-(2-methyl-1H-imidazol-1-yl)-1-phenylethyl)-1-((1-(4-(cyclopropylsulfonyl)phenyl)azetidin-3-yl)methyl)piperidine]	29 nM
N#Cc1ccc(N2CC(CN3CCC(C4(C5CCCC5)CN(C5COC5)Cc5ccccc54)CC3)C2)cc1 (stereo not shown) [compound 44, 4-(3-((4-(4-cyclopentyl-2-(oxetan-3-yl)-1,2,3,4-tetrahydroisoquinolin-4-yl)piperidin-1-yl)methyl)azetidin-1-yl)benzonitrile]	910 nM
O=S(=O)(c1ccc(N2CC(CN3CCC(C4(C5CCCC5)CN(CCF)Cc5ccccc54)CC3)C2)cc1)C1CC1 (stereo not shown) [compound 47, 4-cyclopentyl-4-(1-((1-(4-(cyclopropylsulfonyl)phenyl)azetidin-3-yl)methyl)piperidin-4-yl)-2-(2-fluoroethyl)-1,2,3,4-tetrahydroisoquinoline]	137 nM
O=S(=O)(c1ccncc1)c1ccc(N2CC(CN3CCC(C4(C5CCCC5)CN(CC5CC5)Cc5ccccc54)CC3)C2)cc1 (stereo not shown) [compound 50, 4-cyclopentyl-2-(cyclopropylmethyl)-4-(1-((1-(4-(pyridin-4-ylsulfonyl)phenyl)azetidin-3-yl)methyl)piperidin-4-yl)-1,2,3,4-tetrahydroisoquinoline]	7 nM
O=S(=O)(c1ccncc1)c1ccc(N2CC(CN3CCC(C4(C5CCCC5)CN(CC5COC5)Cc5ccccc54)CC3)C2)cc1 (stereo not shown) [compound 52, 4-cyclopentyl-2-(oxetan-3-ylmethyl)-4-(1-((1-(4-(pyridin-4-ylsulfonyl)phenyl)azetidin-3-yl)methyl)piperidin-4-yl)-1,2,3,4-tetrahydroisoquinoline]	25 nM
O=S(=O)(c1ccncc1)c1ccc(N2CC(CN3CCC(C4(C5CCCC5)CN(Cc5ccncc5)Cc5ccccc54)CC3)C2)cc1 (stereo not shown) [compound 53, 4-cyclopentyl-2-(pyridin-4-ylmethyl)-4-(1-((1-(4-(pyridin-4-ylsulfonyl)phenyl)azetidin-3-yl)methyl)piperidin-4-yl)-1,2,3,4-tetrahydroisoquinoline]	1100 nM

Reference: patent publication US10899738B2 (THE REGENTS OF THE UNIVERSITY OF MICHIGAN, priority 2016, dated 2021)
